# Key:
# [1] = Selectivity index, ratio of IC50 for HEK293 cells to IC50 for human MCF7 cells; conditions: HEK293 cells versus MCF7 cells
# [2] = Selectivity index, ratio of IC50 for HEK293 cells to IC50 for human MDA-MB-231 cells; conditions: HEK293 cells versus MDA-MB-231 cells
# [3] = Selectivity index, ratio of IC50 for HEK293 cells to IC50 for human HCT-116 cells; conditions: HEK293 cells versus HCT-116 cells
# MCF7 = assay: Antiproliferative activity against human MCF7 cells incubated for 72 hrs by MTT assay; conditions: MCF7, 72 h
# MDA-MB-231 = assay: Antiproliferative activity against human MDA-MB-231 cells incubated for 72 hrs by MTT assay; conditions: MDA-MB-231, 72 h
# [4] = Cytotoxicity against HEK293 cells incubated for 72 hrs by MTT assay; conditions: human
# HCT-116 = assay: Antiproliferative activity against human HCT-116 cells incubated for 72 hrs by MTT assay; conditions: HCT-116, 72 h
# SCC-9 = assay: Antiproliferative activity against human SCC-9 cells incubated for 72 hrs by MTT assay; conditions: SCC-9, 72 h
SMILES,selectivity ratio [1],selectivity ratio [2],selectivity ratio [3],IC50 (MCF7),IC50 (MDA-MB-231),IC50 at 72 h [4],IC50 (HCT-116),IC50 (SCC-9)
Cc1cc(S(=O)(=O)Nc2nc(Nc3ccc4ncccc4c3)n[nH]2)c(S)cc1Cl,> 65,> 65,> 65,7.1 µM,8.2 µM,,,
Cc1cc2c(cc1Cl)SC(/N=C(/N)Nc1ccc(Cl)cc1)=NS2(=O)=O,> 65,> 65,> 65,5.5 µM,6.6 µM,,,
Cc1cc(S(=O)(=O)Nc2nc(Nc3ccc(Br)cc3)n[nH]2)c(S)cc1Cl,> 65,> 65,> 65,3.1 µM,3.9 µM,,,
COc1ccc2ccccc2c1Nc1n[nH]c(NS(=O)(=O)c2cc(C)c(Cl)cc2S)n1,> 65,> 65,> 65,7.7 µM,8.5 µM,,,
Cc1cc(S(=O)(=O)Nc2nc(Nc3ccc4cnccc4c3)n[nH]2)c(S)cc1Cl,> 65,> 65,> 65,7.6 µM,8.2 µM,,,
Cc1cc2c(cc1Cl)SC(/N=C(/N)Nc1ccc3ccccc3c1)=NS2(=O)=O,> 65,> 65,> 65,3.5 µM,5.8 µM,,,
Cc1cc(S(=O)(=O)Nc2nc(Nc3cccc4ncccc34)n[nH]2)c(S)cc1Cl,> 65,> 65,> 65,7.2 µM,8.6 µM,,,
COc1nc(N/C(N)=N\C2=NS(=O)(=O)c3cc(C)c(Cl)cc3S2)c2ccn(C)c2n1,> 65,> 65,> 65,2.5 µM,4 µM,,,
COc1cc2nccc(N/C(N)=N\C3=NS(=O)(=O)c4cc(C)c(Cl)cc4S3)c2cc1OC,> 65,> 65,> 65,3.5 µM,6.1 µM,,,
Cc1cc2c(cc1Cl)SC(/N=C(/N)Nc1cccc3cnccc13)=NS2(=O)=O,> 65,> 65,> 65,1.3 µM,2.6 µM,72.2 µM,3.2 µM,1.2 µM
Cc1cc2c(cc1Cl)SC(/N=C(/N)Nc1cnc3ccccc3c1)=NS2(=O)=O,> 65,> 65,> 65,2.3 µM,4.1 µM,,,
Cc1cc2c(cc1Cl)SC(/N=C(/N)Nc1cnc3ccccn3c1=O)=NS2(=O)=O,> 65,> 65,> 65,1 µM,2.5 µM,66.5 µM,4 µM,0.9 µM
Cc1cc(S(=O)(=O)Nc2nc(Nc3cccc4cnccc34)n[nH]2)c(S)cc1Cl,> 65,> 65,> 65,7.4 µM,8.7 µM,,,
COc1ccc(Nc2n[nH]c(NS(=O)(=O)c3cc(C)c(Cl)cc3S)n2)c(OC)c1OC,> 65,> 65,> 65,6.5 µM,7.7 µM,,,
Cc1cc(S(=O)(=O)Nc2nc(NC(=O)c3ccc4ccccc4c3)n[nH]2)c(S)cc1Cl,> 65,> 65,> 65,2.8 µM,3.2 µM,,4.1 µM,2.6 µM
Cc1cc2c(cc1Cl)SC(/N=C(/N)Nc1ccc3ccccc3n1)=NS2(=O)=O,> 65,> 65,> 65,2.3 µM,3.8 µM,,,
COc1ccc(N/C(N)=N\C2=NS(=O)(=O)c3cc(C)c(Cl)cc3S2)cc1,> 65,> 65,> 65,3.3 µM,5.4 µM,,,
Cc1cc2c(cc1Cl)SC(/N=C(/N)Nc1ccc3ncccc3c1)=NS2(=O)=O,> 65,> 65,> 65,3.8 µM,5.8 µM,,,
Cc1cc2c(cc1Cl)SC(/N=C(/N)Nc1ccnc3ccccc13)=NS2(=O)=O,> 65,> 65,> 65,3.1 µM,5.7 µM,,,
COc1cc2nccc(Nc3n[nH]c(NS(=O)(=O)c4cc(C)c(Cl)cc4S)n3)c2cc1OC,> 65,> 65,> 65,8.4 µM,9.2 µM,,,
Cc1cc(S(=O)(=O)Nc2nc(Nc3cccc4cccnc34)n[nH]2)c(S)cc1Cl,> 65,> 65,> 65,8.2 µM,8.8 µM,,,
Cc1cc(S(=O)(=O)Nc2nc(Nc3cncc4ccccc34)n[nH]2)c(S)cc1Cl,> 65,> 65,> 65,1.8 µM,2.6 µM,,3.8 µM,2.1 µM

SMILES,selectivity ratio [1],selectivity ratio [2],selectivity ratio [3],IC50 (MCF7),IC50 (MDA-MB-231),IC50 at 72 h [4],IC50 (HCT-116),IC50 (SCC-9)
COc1cccc2c(O)ccc(N/C(N)=N\C3=NS(=O)(=O)c4cc(C)c(Cl)cc4S3)c12,> 65,> 65,> 65,3.2 µM,6.3 µM,,,
Cc1cc(S(=O)(=O)Nc2nc(Nc3ccnc4cc(Cl)ccc34)n[nH]2)c(S)cc1Cl,> 65,> 65,> 65,4 µM,4.8 µM,,,
Cc1cc(S(=O)(=O)Nc2nc(Nc3ccc4cc(O)ccc4c3)n[nH]2)c(S)cc1Cl,> 65,> 65,> 65,7.5 µM,8.6 µM,,,
Cc1cc2c(cc1Cl)SC(/N=C(/N)Nc1cccc3cccnc13)=NS2(=O)=O,> 65,> 65,> 65,3.6 µM,5.6 µM,,,
Cc1cc2c(cc1Cl)SC(/N=C(/N)NC(=O)c1ccc3ccccc3c1)=NS2(=O)=O,> 65,> 65,> 65,2.4 µM,4 µM,,,
Cc1cc(S(=O)(=O)Nc2nc(Nc3cccc4ccccc34)n[nH]2)c(S)cc1Cl,> 65,> 65,> 65,7.5 µM,8.6 µM,,,
Cc1cc(S(=O)(=O)Nc2nc(Nc3ccc4ccccc4c3)n[nH]2)c(S)cc1Cl,,,,4.4 µM,5.5 µM,,4.9 µM,4 µM
Cc1cc(S(=O)(=O)Nc2nc(Nc3ccc(Cl)cc3)n[nH]2)c(S)cc1Cl,,,,7.4 µM,8.4 µM,,,
COc1ccc(Nc2n[nH]c(NS(=O)(=O)c3cc(C)c(Cl)cc3S)n2)cc1,> 65,> 65,> 65,7.8 µM,8.5 µM,,,
Cc1cc(S(=O)(=O)Nc2nnc(Nc3ccccc3)[nH]2)c(S)cc1Cl,> 65,> 65,> 65,6.3 µM,7 µM,,,
Cc1cc2c(cc1Cl)SC(/N=C(/N)Nc1ccc3c(ccc(=O)n3C)c1)=NS2(=O)=O,> 65,> 65,> 65,4 µM,5.8 µM,,,
COc1cc(N/C(N)=N\C2=NS(=O)(=O)c3cc(C)c(Cl)cc3S2)cc(OC)c1OC,> 65,> 65,> 65,2.4 µM,4.1 µM,,,
COc1ccc2ccccc2c1N/C(N)=N\C1=NS(=O)(=O)c2cc(C)c(Cl)cc2S1,> 65,> 65,> 65,3 µM,4.3 µM,,,
Cc1cc2c(cc1Cl)SC(/N=C(/N)Nc1ccc(N3CCOCC3)cc1)=NS2(=O)=O,> 65,> 65,> 65,1.1 µM,2.4 µM,70.1 µM,4.4 µM,1.2 µM
Cc1cc2c(cc1Cl)SC(/N=C(/N)Nc1ccc3nccnc3c1)=NS2(=O)=O,> 65,> 65,> 65,2.5 µM,4.1 µM,,,
Cc1cc(S(=O)(=O)Nc2nc(Nc3cnc4ccccc4c3)n[nH]2)c(S)cc1Cl,> 65,> 65,> 65,7.8 µM,8.6 µM,,,
Cc1cc2c(cc1Cl)SC(/N=C(/N)Nc1ccc3cnccc3c1)=NS2(=O)=O,> 65,> 65,> 65,5.4 µM,7.2 µM,,,
CC(=O)c1cn(C)c2ccc(N/C(N)=N\C3=NS(=O)(=O)c4cc(C)c(Cl)cc4S3)cc12,> 65,> 65,> 65,2.9 µM,5.2 µM,,,
Cc1cc2c(cc1Cl)SC(/N=C(/N)Nc1cccc3ncccc13)=NS2(=O)=O,> 65,> 65,> 65,3.6 µM,5.4 µM,,,
Cc1cc2c(cc1Cl)SC(/N=C(/N)Nc1cncc3ccccc13)=NS2(=O)=O,> 65,> 65,> 65,3 µM,5.3 µM,,,
Cc1cc2c(cc1Cl)SC(/N=C(/N)Nc1ccc3cc(O)ccc3c1)=NS2(=O)=O,> 65,> 65,> 65,3.2 µM,4.4 µM,,,

# Reference: ChEMBL document CHEMBL5344474, “Molecular editing of NSC-666719 enabling discovery of benzodithiazinedioxide-guanidines as anticancer agents” (RSC Med Chem, 2024)
